≈ marks a conversion by molar mass, not a printed value.
Tests used:
[1] = Antioxidant activity by DPPH; format: biochemical
Method: Tests were performed for the antioxidant activity by DPPH of the dried extract of macela-do-campo obtained by spray dryer. […] Trolox (a derivative of vitamin E sold by Hoffman LaRoche) was used as a standard of the aforesaid test and has its IC50 of antioxidant activity obtained with 0.005 mg/ml. Therefore, it can be concluded that the dried extract of macela-do-campo has extremely high antioxidant effectiveness, only 4 times less than Trolox.

PDE3 = settings: cited from earlier work
P. acnes = assay: Bioautography of Propionibacterium acnes (HPTLC separation, inoculum overlay); format: cell-based; settings: incubation 72 hours, revealed with TTC
Method: Bioautographic trials were conducted to determine the classes of the compounds present in the extract of inflorescence of Achyrocline satureioides that perform the anti-bacterial activity against Propionibacterium acnes. The bioautography consists of the chromatographic separation of the compounds by HPTLC and the subsequent application of the inoculation to the culture medium over the chromatographic plate.

PDE4 = settings: cited from earlier work
PDE 5A = PDE 5A (Homo sapiens, UniProt O76074); settings: cited from earlier work
[2] = tested on: smooth muscle of guinea pig tracheas; settings: guinea pig tracheas precontracted with histamine, carbachol, KCl and forskolin; cited from earlier work
[3] = tested on: smooth muscle of guinea pig corpus cavernosum; settings: cited from earlier work
Propionibacterium acnes = assay: Minimum Inhibitory Concentration (MIC), microplate dilution; format: cell-based; settings: Cutibacterium acnes, anaerobiosis, 35° C., 96 hours, mg/ml of sample
Method: Tests were carried out for evaluating the minimum inhibitory concentrations of 3 batches of the dried extract of inflorescences of macela-do-campo produced in accordance with the process of the present invention against Propionibacterium acnes.
The procedure used for this test is the following:
Preparation of inoculum: the microorganism to be used in testing was replicated to a glass flask containing 10 ml of sterilized culture medium broth (TSB); • the flaks were incubated at 35° C.+/−2° C. for 24 hours; • the above procedure was repeated for 2 consecutive days; • 100 microliters of TSB broth were distributed in a microplate with the exception of column 1; • column 1 was inoculated with 200 microliters of the sample to be tested previously prepared and solubilized; • dilutions were carried out by transferring 100 microliters of column 1 to column 2 and 100 microliters of column 2 to column 3 and thus successively until column 10. […] The plate in which Propionibacterium acnes was inoculated was incubated under anaerobosis at 35° C.+/−2° C. for 96 hours; • after the incubation period the reading was carried out, thus observing the turbidity of the wells; • the samples were weighed and diluted in the vehicle ethanol 96° GL/distilled water (1:1) according to the weights and volumes below: […]

SMILES	IC50 of the antioxidant activity [1] [mg/L]	IC50 (PDE3) [µM]	anti-microbial activity in bioautography (inhibition halos) (P. acnes)	IC50 (PDE4) [µM]	IC50 (PDE 5A) [µM]	relaxation of smooth muscle of tracheas [2]	relaxant activity in smooth muscle of corpus cavernosum [3]	MIC (Propionibacterium acnes) [mg/L]
Cc1c(C)c2c(c(C)c1O)CCC(C)(C(=O)O)O2 (centres unmarked) [Trolox]	5							
COc1c(-c2ccc(O)c(O)c2)oc2cc(O)cc(O)c2c1=O [3-O-methylquercetin]		1.6	main ingredients responsible for the anti-microbial activity	28.5	86.9	capable of provoking the relaxation of the smooth muscle	show the same relaxant activity	
O=c1c(O)c(-c2ccc(O)c(O)c2)oc2cc(O)cc(O)c12 [quercetin]			main ingredients responsible for the anti-microbial activity		1.9		show the same relaxant activity	36.4 (≈ 120 µM)
